Where two headings read alike, the source gives them in different places.
Key:
JAK2 = target: T1, JAK2 (Homo sapiens, UniProt O60674); test: Recombinant Human JAK2 Kinase Assay (TRF); format: biochemical; conditions: read-out: JAK2 Potency
T1 construct: host or cells: baculovirus expression system
Outline: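 Baculovirus-expressed JAK2 (15 ng/ml) phosphorylated a biotinylated 15-mer peptide captured on Neutravidin-coated plates, in 20 mM HEPES pH 7.2 with 0.2 μM ATP, 1 mM MnCl2, 0.1% BSA and 2.5% DMSO. Reaction ran 20 min at room temperature; phosphopeptide was detected by time-resolved fluorescence with Eu-N1-labelled PY100 antibody.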

ALK = target: T2, ALK (Homo sapiens, UniProt Q9UM73); test: ALK Kinase Assay (ELISA/TRF, PLC-γ substrate); format: biochemical; conditions: read-out: ALK Potency
T2 construct: host or cells: baculovirus expression system
T2 sequence (Q9UM73 19-1620): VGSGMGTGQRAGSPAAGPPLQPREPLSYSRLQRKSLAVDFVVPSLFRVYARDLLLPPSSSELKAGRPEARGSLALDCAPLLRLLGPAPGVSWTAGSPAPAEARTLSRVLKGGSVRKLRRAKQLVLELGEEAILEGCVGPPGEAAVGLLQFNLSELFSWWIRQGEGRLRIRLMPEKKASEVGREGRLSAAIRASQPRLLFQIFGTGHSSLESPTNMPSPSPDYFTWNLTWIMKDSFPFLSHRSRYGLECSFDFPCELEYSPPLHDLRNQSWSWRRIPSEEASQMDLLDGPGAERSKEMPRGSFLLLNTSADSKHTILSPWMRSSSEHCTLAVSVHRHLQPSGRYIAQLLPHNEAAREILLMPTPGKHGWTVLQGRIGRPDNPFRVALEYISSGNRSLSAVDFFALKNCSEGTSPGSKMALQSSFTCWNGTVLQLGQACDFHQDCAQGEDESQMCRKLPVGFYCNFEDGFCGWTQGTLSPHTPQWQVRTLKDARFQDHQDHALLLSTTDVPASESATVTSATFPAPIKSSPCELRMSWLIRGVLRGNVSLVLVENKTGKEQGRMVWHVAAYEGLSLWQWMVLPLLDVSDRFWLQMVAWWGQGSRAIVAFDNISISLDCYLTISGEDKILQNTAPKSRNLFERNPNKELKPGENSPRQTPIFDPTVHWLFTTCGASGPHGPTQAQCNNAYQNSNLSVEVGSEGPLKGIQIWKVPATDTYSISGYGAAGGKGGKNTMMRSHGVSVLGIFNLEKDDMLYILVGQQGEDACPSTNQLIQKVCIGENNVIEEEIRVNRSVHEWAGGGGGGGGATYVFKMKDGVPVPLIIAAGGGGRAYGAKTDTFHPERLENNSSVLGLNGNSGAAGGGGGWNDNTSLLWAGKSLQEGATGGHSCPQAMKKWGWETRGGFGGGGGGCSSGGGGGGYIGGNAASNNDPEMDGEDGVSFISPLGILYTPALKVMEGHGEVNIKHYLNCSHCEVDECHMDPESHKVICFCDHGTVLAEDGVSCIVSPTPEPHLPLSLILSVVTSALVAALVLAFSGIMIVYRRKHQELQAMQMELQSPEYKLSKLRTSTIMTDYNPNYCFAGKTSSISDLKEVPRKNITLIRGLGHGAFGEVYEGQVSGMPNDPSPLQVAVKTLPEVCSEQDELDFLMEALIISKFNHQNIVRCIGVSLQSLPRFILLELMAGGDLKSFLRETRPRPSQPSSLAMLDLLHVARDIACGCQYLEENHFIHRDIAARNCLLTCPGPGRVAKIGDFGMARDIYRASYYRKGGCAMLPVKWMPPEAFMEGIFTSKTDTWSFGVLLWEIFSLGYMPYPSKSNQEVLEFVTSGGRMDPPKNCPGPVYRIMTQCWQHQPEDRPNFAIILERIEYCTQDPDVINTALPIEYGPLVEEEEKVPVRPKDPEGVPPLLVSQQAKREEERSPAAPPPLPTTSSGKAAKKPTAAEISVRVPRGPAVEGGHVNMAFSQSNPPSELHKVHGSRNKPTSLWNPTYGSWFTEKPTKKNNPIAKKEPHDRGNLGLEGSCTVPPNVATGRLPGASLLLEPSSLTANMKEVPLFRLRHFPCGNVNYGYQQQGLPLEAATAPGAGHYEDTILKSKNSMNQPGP
Outline: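 PLC-γ coat 10 μg/mL in TBS; ALK 30 ng/ml added to start; 37° C, 15 min; Eu-N1 PT66 antibody detection (TRF). IC50: % inhibition vs log10 [cpd], variable-slope sigmoidal fit.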

[1] = JAK2 kinase inhibition, 0.2 μM ATP
[2] = ALK kinase inhibition, 1 μM ATP

T1 sequence (O60674 whole entry): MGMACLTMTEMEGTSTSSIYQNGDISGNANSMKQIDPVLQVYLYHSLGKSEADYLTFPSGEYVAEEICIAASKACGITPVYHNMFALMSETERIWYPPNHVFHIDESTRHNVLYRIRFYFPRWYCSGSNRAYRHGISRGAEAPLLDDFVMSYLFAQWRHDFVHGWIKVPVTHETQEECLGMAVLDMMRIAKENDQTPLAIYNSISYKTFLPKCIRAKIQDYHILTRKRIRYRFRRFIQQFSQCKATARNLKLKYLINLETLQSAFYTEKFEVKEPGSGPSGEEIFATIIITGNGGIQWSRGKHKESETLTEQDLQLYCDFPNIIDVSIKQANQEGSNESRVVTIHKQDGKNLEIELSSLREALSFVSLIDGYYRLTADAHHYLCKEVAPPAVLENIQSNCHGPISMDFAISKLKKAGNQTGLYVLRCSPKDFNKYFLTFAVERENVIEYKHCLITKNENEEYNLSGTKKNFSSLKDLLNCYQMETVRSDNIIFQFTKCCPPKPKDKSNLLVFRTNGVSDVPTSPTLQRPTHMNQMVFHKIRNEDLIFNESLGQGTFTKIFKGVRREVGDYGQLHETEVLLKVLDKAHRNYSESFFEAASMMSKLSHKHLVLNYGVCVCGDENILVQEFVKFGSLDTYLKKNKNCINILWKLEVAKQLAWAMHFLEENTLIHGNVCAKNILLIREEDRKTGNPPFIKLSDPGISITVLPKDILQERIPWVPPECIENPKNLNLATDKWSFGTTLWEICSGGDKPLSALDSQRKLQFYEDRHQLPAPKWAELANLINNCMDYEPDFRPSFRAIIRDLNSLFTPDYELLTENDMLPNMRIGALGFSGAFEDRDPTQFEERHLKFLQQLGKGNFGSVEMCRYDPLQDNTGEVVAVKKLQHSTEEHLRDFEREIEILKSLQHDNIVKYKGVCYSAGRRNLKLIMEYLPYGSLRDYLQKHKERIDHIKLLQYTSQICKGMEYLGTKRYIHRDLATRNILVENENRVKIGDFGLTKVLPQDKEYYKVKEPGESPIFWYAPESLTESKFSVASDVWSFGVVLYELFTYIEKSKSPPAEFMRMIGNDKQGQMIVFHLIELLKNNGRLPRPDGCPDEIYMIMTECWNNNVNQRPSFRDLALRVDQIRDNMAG

Compound | IC50 (JAK2; JAK2 Kinase Inhibition) | IC50 (ALK; ALK Kinase Inhibition) | IC50 (JAK2; [1]) | IC50 (ALK; [2])
CCN1CCOC(c2ccc(Nc3ncc4ccc(-c5cc(Cl)ccc5OC)n4n3)cc2)C1 (centres unmarked) [Example 253, [7-(5-Chloro-2-methoxy-phenyl)-pyrrolo[2,1-f][1,2,4]triazin-2-yl]-[4-(4-ethyl-morpholin-2-yl)-phenyl]-amine] | < 0.1 µM | < 0.1 µM |  | 
COc1cc(N2CCC[C@@H](CN3CCN(C)CC3)C2)ccc1Nc1ncc2ccc(-c3ccccc3N(C)S(C)(=O)=O)n2n1 [Example 469, N-[2-(2-{2-Methoxy-4-[(S)-3-(4-methyl-piperazin-1-ylmethyl)-piperidin-1-yl]-phenylamino}-pyrrolo[2,1-f][1,2,4]triazin-7-yl)-phenyl]-N-methyl-methanesulfonamide] | 0.1 to 1 µM | < 0.1 µM |  | 
CN1CCN(c2ccc(Nc3ncc4ccc(-c5cccc(NS(=O)(=O)C6CC6)c5)n4n3)cc2)CC1 [Example 413, Cyclopropanesulfonic acid (3-{2-[4-(4-methyl-piperazin-1-yl)-phenylamino]-pyrrolo[2,1-f][1,2,4]triazin-7-yl}-phenyl)-amide] | < 0.1 µM | 0.1 to 1 µM |  | 
N-{2-tert-Butyl-5-[7-(5-chloro-2-methoxy-phenyl)-pyrrolo[2,1-f][1,2,4]triazin-2-ylamino]-phenyl}-acetamide [Example 305] | < 0.1 µM | 0.1 to 1 µM |  | 
CN1CCN(c2ccc(Nc3ncc4ccc(-c5ccccc5NS(C)(=O)=O)n4n3)cc2)CC1 [Example 429, N-(2-{2-[4-(4-Methyl-piperazin-1-yl)-phenylamino]-pyrrolo[2,1-f][1,2,4]triazin-7-yl}-phenyl)-methanesulfonamide] | < 0.1 µM | 0.1 to 1 µM |  | 
[7-(4-Methanesulfonyl-phenyl)-pyrrolo[2,1-f][1,2,4]triazin-2-yl]-(4-piperidin-1-yl-phenyl)-amine [Example 85] | < 0.1 µM | > 10 µM |  | 
CN1CCN(c2ccc(Nc3ncc4ccc(-c5cccc(S(=O)(=O)N6CCCC6)c5)n4n3)cc2)CC1 [Example 367, [4-(4-Methyl-piperazin-1-yl)-phenyl]-{7-[3-(pyrrolidine-1-sulfonyl)-phenyl]-pyrrolo[2,1-f][1,2,4]triazin-2-yl}-amine] | < 0.1 µM | 0.1 to 1 µM |  | 
COc1ccc(Cl)cc1-c1ccc2cnc(Nc3ccc(N4CCN(C)CC4)cc3)nn12 [Example 17, [7-(5-Chloro-2-methoxy-phenyl)-pyrrolo[2,1-f][1,2,4]triazin-2-yl]-[4-(4-methyl-piperazin-1-yl)-phenyl]-amine] | < 0.1 µM | < 0.1 µM |  | 
O=S(=O)(c1cccc(-c2ccc3cnc(Nc4ccc(N5CCOCC5)cc4)nn23)c1)N1CCCC1 [Example 358, (4-Morpholin-4-yl-phenyl)-{7-[3-(pyrrolidine-1-sulfonyl)-phenyl]-pyrrolo[2,1-f][1,2,4]triazin-2-yl}-amine] | < 0.1 µM | 0.1 to 1 µM |  | 
COc1cccc(Nc2ncc3ccc(-c4cc(Cl)ccc4OC)n3n2)c1 [Example 144, [7-(5-Chloro-2-methoxy-phenyl)-pyrrolo[2,1-f][1,2,4]triazin-2-yl]-(3-methoxy-phenyl)-amine] | < 0.1 µM | 1 to 10 µM |  | 
CN1CCN(c2ccc(Nc3ncc4ccc(Nc5ccccc5)n4n3)cc2)CC1 [Example 24, N(2)-[4-(4-Methyl-piperazin-1-yl)-phenyl]-N(7)-phenyl-pyrrolo[2,1-f][1,2,4]triazine-2,7-diamine] | < 0.1 µM | 1 to 10 µM |  | 
COc1cc(C2CCN(C)CC2)ccc1Nc1ncc2ccc(-c3ccccc3OC)n2n1 [Example 762, [2-Methoxy-4-(1-methyl-piperidin-4-yl)-phenyl]-[7-(2-methoxy-phenyl)-pyrrolo[2,1-f][1,2,4]triazin-2-yl]-amine] |  |  | < 0.1 µM | < 0.1 µM
CN1CCN(CC2CCN(c3ccc(Nc4ncc5ccc(-c6ccc(S(C)(=O)=O)cc6)n5n4)cc3)CC2)CC1 [Example 452, [7-(4-Methanesulfonyl-phenyl)-pyrrolo[2,1-f][1,2,4]triazin-2-yl]-{4-[4-(4-methyl-piperazin-1-ylmethyl)-piperidin-1-yl]-phenyl}-amine] | < 0.1 µM | 0.1 to 1 µM |  | 
CS(=O)(=O)c1ccc(-c2ccc3cnc(Nc4cccc(N5CCN(CCO)CC5)c4)nn23)cc1 [Example 181, 2-(4-{3-[7-(4-Methanesulfonyl-phenyl)-pyrrolo[2,1-f][1,2,4]triazin-2-ylamino]-phenyl}-piperazin-1-yl)-ethanol] | < 0.1 µM | 0.1 to 1 µM |  | 
CS(=O)(=O)Nc1cccc(-c2ccc3cnc(Nc4ccc(N5CCN(CCO)CC5)cc4)nn23)c1 [Example 380, N-[3-(2-{4-[4-(2-Hydroxy-ethyl)-piperazin-1-yl]-phenylamino}-pyrrolo[2,1-f][1,2,4]triazin-7-yl)-phenyl]-methanesulfonamide] | < 0.1 µM | < 0.1 µM |  | 

Results, then the compound that gave them:

IC50 (JAK2; JAK2 Kinase Inhibition) | IC50 (ALK; ALK Kinase Inhibition) | IC50 (JAK2; [1]) | IC50 (ALK; [2]) | Compound
 |  | < 0.1 µM | < 0.1 µM | COc1cc(N2CCC(N3CCCN(CCO)CC3)CC2)ccc1Nc1ncc2ccc(-c3ccccc3OC)n2n1 [Example 801, 2-[4-(1-{3-Methoxy-4-[7-(2-methoxy-phenyl)-pyrrolo[2,1-f][1,2,4]triazin-2-ylamino]-phenyl}-piperidin-4-yl)-[1,4]diazepan-1-yl]-ethanol]
 |  | < 0.1 µM | 1 to 10 µM | O=S(=O)(c1cccc(-c2ccc3cnc(Nc4ccc5nc(CO)[nH]c5c4)nn23)c1)N1CCOCC1 [Example 1068, (6-{7-[3-(Morpholine-4-sulfonyl)-phenyl]-pyrrolo[2,1-f][1,2,4]triazin-2-ylamino}-1H-benzoimidazol-2-yl)-methanol]
 |  | < 0.1 µM | 0.1 to 1 µM | CC(C)(C)NS(=O)(=O)c1cccc(-c2ccc3cnc(Nc4ccc5c(c4)CCN(CC(N)=O)C5)nn23)c1 [Example 920, 2-{6-[7-(3-tert-Butylsulfamoyl-phenyl)-pyrrolo[2,1-f][1,2,4]triazin-2-ylamino]-3,4-dihydro-1H-isoquinolin-2-yl}-acetamide]
 |  | < 0.1 µM | 0.1 to 1 µM | COc1ccc(-c2ccc3cnc(Nc4ccc5c(c4)CCN(C)C5)nn23)cn1 [Example 919, [7-(6-Methoxy-pyridin-3-yl)-pyrrolo[2,1-f][1,2,4]triazin-2-yl]-(2-methyl-1,2,3,4-tetrahydro-isoquinolin-6-yl)-amine]
 |  | < 0.1 µM | > 10 µM | CCNC(=O)Nc1cccc(Nc2ncc3ccc(-c4ccc(OC)nc4)n3n2)c1 [Example 901, 1-Ethyl-3-{3-[7-(6-methoxy-pyridin-3-yl)-pyrrolo[2,1-f][1,2,4]triazin-2-ylamino]-phenyl}-urea]
< 0.1 µM | < 0.1 µM |  |  | C[C@H](O)CN1CCN(c2cc([S@@+](C)[O-])c(Nc3ncc4ccc(-c5ccccc5N(C)S(C)(=O)=O)n4n3)cc2F)CC1 [Example 1484, (R,S)—N-[2-(2-{5-Fluoro-4-[4-((S)-2-hydroxy-propyl)-piperazin-1-yl]-2-methanesulfinyl-phenylamino}-pyrrolo[2,1-f][1,2,4]triazin-7-yl)-phenyl]-N-methyl-methanesulfonamide]
 |  | < 0.1 µM | 1 to 10 µM | COc1ccc(-c2ccc3cnc(Nc4cccc(N)c4)nn23)cn1 [Example 898, N-[7-(6-Methoxy-pyridin-3-yl)-pyrrolo[2,1-f][1,2,4]triazin-2-yl]-benzene-1,3-diamine]
 |  | < 0.1 µM | < 0.1 µM | CN1CCN(c2ccc(Nc3ncc4ccc(-c5ccc(CN6CCS(=O)(=O)CC6)cc5)n4n3)cc2)CC1 [Example 1031, {7-[4-(1,1-Dioxo-1$1(6)-thiomorpholin-4-ylmethyl)-phenyl]-pyrrolo[2,1-f][1,2,4]triazin-2-yl}-[4-(4-methyl-piperazin-1-yl)-phenyl]-amine]
 |  | < 0.1 µM | 0.1 to 1 µM | CN1CCc2ccc(Nc3ncc4ccc(-c5cccc(S(=O)(=O)NC(C)(C)C)c5)n4n3)cc2C1 [Example 931, N-tert-Butyl-3-[2-(2-methyl-1,2,3,4-tetrahydro-isoquinolin-7-ylamino)-pyrrolo[2,1-f][1,2,4]triazin-7-yl]-benzenesulfonamide]
 |  | 0.1 to 1 µM | < 0.1 µM | COc1cc(CN2CCC(O)CC2)ccc1Nc1ncc2ccc(-c3ccccc3OC)n2n1 [Example 1235, 1-{3-Methoxy-4-[7-(2-methoxy-phenyl)-pyrrolo[2,1-f][1,2,4]triazin-2-ylamino]-benzyl}-piperidin-4-ol]
 |  | < 0.1 µM | 1 to 10 µM | COc1ccc(-c2ccc3cnc(Nc4ccc(C5C(=O)N(C)CCN5C)cc4)nn23)cn1 (centres unmarked) [Example 1072, 3-{4-[7-(6-Methoxy-pyridin-3-yl)-pyrrolo[2,1-f][1,2,4]triazin-2-ylamino]-phenyl}-1,4-dimethyl-piperazin-2-one]
 |  | < 0.1 µM | 0.1 to 1 µM | COc1ccc(-c2ccc3cnc(Nc4ccc(OCCN5CCOCC5)cc4)nn23)cn1 [Example 1103, [7-(6-Methoxy-pyridin-3-yl)-pyrrolo[2,1-f][1,2,4]triazin-2-yl]-[4-(2-morpholin-4-yl-ethoxy)-phenyl]-amine]
 |  | > 10 µM | 0.1 to 1 µM | COc1cc(C2CCN(C(=O)OC(C)(C)C)CC2)ccc1Nc1ncc2ccc(-c3ccccc3N(C)S(C)(=O)=O)n2n1 [Example 818, 4-(4-{7-[2-(Methanesulfonyl-methyl-amino)-phenyl]-pyrrolo[2,1-f][1,2,4]triazin-2-ylamino}-3-methoxy-phenyl)-piperidine-1-carboxylic acid tert-butyl ester]

— patent US8471005B2 (Cephalon, Inc., priority 2008, dated 2013)
